According to PubChem BioAssay (NCI):
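1) Cells in 96-well plates. 2) Compound, 48 h, 5 concentrations. 3) Linear interpolation between surrounding doses. 4) Unreached endpoint = highest concentration. At the TGI there is no net growth.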

Assays:
Assay in all cases: NCI tumour cell line growth inhibition, 48 h
A498 renal = test system: A498 renal
A549 NSCLC = test system: A549 NSCLC
CAKI-1 renal = test system: CAKI-1 renal
CCRF-CEM leukemia = test system: CCRF-CEM leukemia
COLO 205 colon = test system: COLO 205 colon
DLD-1 colon = test system: DLD-1 colon
DMS 114 small cell lung = test system: DMS 114 small cell lung
DMS 273 small cell lung = test system: DMS 273 small cell lung
EKVX NSCLC = test system: EKVX NSCLC
HCC-2998 colon = test system: HCC-2998 colon
HCT-116 colon = test system: HCT-116 colon
HCT-15 colon = test system: HCT-15 colon
HL-60(TB) leukemia = test system: HL-60(TB) leukemia
HOP-18 NSCLC = test system: HOP-18 NSCLC
HOP-62 NSCLC = test system: HOP-62 NSCLC
HOP-92 NSCLC = test system: HOP-92 NSCLC
HT29 colon = test system: HT29 colon
IGROV1 ovarian = test system: IGROV1 ovarian
K-562 leukemia = test system: K-562 leukemia
KM12 colon = test system: KM12 colon
KM20L2 colon = test system: KM20L2 colon
LOX IMVI melanoma = test system: LOX IMVI melanoma
M19-MEL melanoma = test system: M19-MEL melanoma
MALME-3M melanoma = test system: MALME-3M melanoma
MCF7 breast = test system: MCF7 breast
MOLT-4 leukemia = test system: MOLT-4 leukemia
NCI-H226 lung = test system: NCI-H226 lung
NCI-H23 lung = test system: NCI-H23 lung
NCI-H460 lung = test system: NCI-H460 lung
NCI-H522 lung = test system: NCI-H522 lung
NCI/ADR-RES ovarian = test system: NCI/ADR-RES ovarian
OVCAR-3 ovarian = test system: OVCAR-3 ovarian
OVCAR-4 ovarian = test system: OVCAR-4 ovarian
OVCAR-5 ovarian = test system: OVCAR-5 ovarian
OVCAR-8 ovarian = test system: OVCAR-8 ovarian
P388 leukemia = test system: P388 leukemia
P388/ADR leukemia = test system: P388/ADR leukemia
RPMI-8226 leukemia = test system: RPMI-8226 leukemia
RXF 393 renal = test system: RXF 393 renal
SF-268 CNS = test system: SF-268 CNS
SF-295 CNS = test system: SF-295 CNS
SF-539 CNS = test system: SF-539 CNS
SK-MEL-2 melanoma = test system: SK-MEL-2 melanoma
SK-MEL-28 melanoma = test system: SK-MEL-28 melanoma
SK-MEL-5 melanoma = test system: SK-MEL-5 melanoma
SK-OV-3 ovarian = test system: SK-OV-3 ovarian
SN12C renal = test system: SN12C renal
SN12K1 renal = test system: SN12K1 renal
SNB-19 CNS = test system: SNB-19 CNS
SNB-75 CNS = test system: SNB-75 CNS
SNB-78 CNS = test system: SNB-78 CNS
SW-620 colon = test system: SW-620 colon
U251 CNS = test system: U251 CNS
UACC-257 melanoma = test system: UACC-257 melanoma
UACC-62 melanoma = test system: UACC-62 melanoma
UO-31 renal = test system: UO-31 renal
XF 498 CNS = test system: XF 498 CNS
786-0 renal = test system: 786-0 renal
ACHN renal = test system: ACHN renal
LXFL 529 NSCLC = test system: LXFL 529 NSCLC
M14 melanoma = test system: M14 melanoma
RXF-631 renal = test system: RXF-631 renal
SR leukemia = test system: SR leukemia
TK-10 renal = test system: TK-10 renal

COc1cc2c(cc1OC)C(C(c1ccccc1)c1ccccc1)N(C)CC2 (stereo not drawn)
TGI (A498 renal): > 100 µM | TGI (A549 NSCLC): > 100 µM | TGI (CAKI-1 renal): > 100 µM | TGI (CCRF-CEM leukemia): > 100 µM | TGI (COLO 205 colon): 33.5 µM | TGI (DLD-1 colon): > 100 µM | TGI (DMS 114 small cell lung): > 100 µM | TGI (DMS 273 small cell lung): > 100 µM | TGI (EKVX NSCLC): > 100 µM | TGI (HCC-2998 colon): 63.8 µM | TGI (HCT-116 colon): > 100 µM | TGI (HCT-15 colon): > 100 µM | TGI (HL-60(TB) leukemia): > 100 µM | TGI (HOP-18 NSCLC): > 100 µM | TGI (HOP-62 NSCLC): > 100 µM | TGI (HOP-92 NSCLC): > 70.8 µM | TGI (HT29 colon): > 100 µM | TGI (IGROV1 ovarian): > 100 µM | TGI (K-562 leukemia): > 100 µM | TGI (KM12 colon): > 100 µM | TGI (KM20L2 colon): > 73.7 µM | TGI (LOX IMVI melanoma): > 100 µM | TGI (M19-MEL melanoma): > 100 µM | TGI (MALME-3M melanoma): 56.2 µM | TGI (MCF7 breast): > 100 µM | TGI (MOLT-4 leukemia): > 100 µM | TGI (NCI-H226 lung): > 100 µM | TGI (NCI-H23 lung): > 100 µM | TGI (NCI-H460 lung): > 100 µM | TGI (NCI-H522 lung): > 100 µM | TGI (NCI/ADR-RES ovarian): > 100 µM | TGI (OVCAR-3 ovarian): > 100 µM | TGI (OVCAR-4 ovarian): > 100 µM | TGI (OVCAR-5 ovarian): > 100 µM | TGI (OVCAR-8 ovarian): > 100 µM | TGI (P388 leukemia): > 100 µM | TGI (P388/ADR leukemia): > 100 µM | TGI (RPMI-8226 leukemia): > 100 µM | TGI (RXF 393 renal): 60.2 µM | TGI (SF-268 CNS): > 100 µM | TGI (SF-295 CNS): > 100 µM | TGI (SF-539 CNS): > 100 µM | TGI (SK-MEL-2 melanoma): > 100 µM | TGI (SK-MEL-28 melanoma): > 100 µM | TGI (SK-MEL-5 melanoma): 47.6 µM | TGI (SK-OV-3 ovarian): > 100 µM | TGI (SN12C renal): > 100 µM | TGI (SN12K1 renal): > 65.6 µM | TGI (SNB-19 CNS): > 100 µM | TGI (SNB-75 CNS): 99.5 µM | TGI (SNB-78 CNS): > 100 µM | TGI (SW-620 colon): > 100 µM | TGI (U251 CNS): > 100 µM | TGI (UACC-257 melanoma): > 86.9 µM | TGI (UACC-62 melanoma): > 100 µM | TGI (UO-31 renal): > 100 µM | TGI (XF 498 CNS): 97.8 µM

COc1ccc2c(c1OCC(=O)O)C(=O)C(CCC(=O)O)CC2 (stereo not drawn)
TGI (786-0 renal): > 100 µM | TGI (A498 renal): > 100 µM | TGI (A549 NSCLC): > 100 µM | TGI (ACHN renal): > 100 µM | TGI (CAKI-1 renal): > 100 µM | TGI (CCRF-CEM leukemia): > 100 µM | TGI (COLO 205 colon): > 100 µM | TGI (DLD-1 colon): > 100 µM | TGI (DMS 114 small cell lung): > 100 µM | TGI (DMS 273 small cell lung): > 100 µM | TGI (EKVX NSCLC): > 100 µM | TGI (HCC-2998 colon): > 100 µM | TGI (HCT-116 colon): > 100 µM | TGI (HCT-15 colon): > 100 µM | TGI (HL-60(TB) leukemia): > 100 µM | TGI (HOP-18 NSCLC): > 100 µM | TGI (HOP-62 NSCLC): > 100 µM | TGI (HT29 colon): > 100 µM | TGI (IGROV1 ovarian): > 100 µM | TGI (KM20L2 colon): > 100 µM | TGI (LOX IMVI melanoma): > 100 µM | TGI (LXFL 529 NSCLC): > 100 µM | TGI (M14 melanoma): > 100 µM | TGI (M19-MEL melanoma): > 100 µM | TGI (MOLT-4 leukemia): > 100 µM | TGI (NCI-H23 lung): > 100 µM | TGI (NCI-H460 lung): > 100 µM | TGI (OVCAR-3 ovarian): > 100 µM | TGI (OVCAR-4 ovarian): > 100 µM | TGI (OVCAR-8 ovarian): > 100 µM | TGI (RPMI-8226 leukemia): > 100 µM | TGI (RXF 393 renal): > 100 µM | TGI (RXF-631 renal): > 100 µM | TGI (SF-295 CNS): > 100 µM | TGI (SF-539 CNS): > 100 µM | TGI (SK-MEL-28 melanoma): > 100 µM | TGI (SK-MEL-5 melanoma): > 100 µM | TGI (SK-OV-3 ovarian): > 100 µM | TGI (SN12C renal): > 100 µM | TGI (SNB-19 CNS): > 100 µM | TGI (SNB-75 CNS): > 100 µM | TGI (SNB-78 CNS): > 100 µM | TGI (SW-620 colon): > 100 µM | TGI (U251 CNS): > 100 µM | TGI (UACC-257 melanoma): > 100 µM | TGI (UACC-62 melanoma): > 100 µM | TGI (XF 498 CNS): > 100 µM

CN1CCC(=O)/C(=C/c2ccccc2)C1
TGI (786-0 renal): 25.2 µM | TGI (A498 renal): 33 µM | TGI (A549 NSCLC): 34.3 µM | TGI (ACHN renal): 32.4 µM | TGI (CAKI-1 renal): 33.9 µM | TGI (CCRF-CEM leukemia): 50.7 µM | TGI (COLO 205 colon): 28.3 µM | TGI (DLD-1 colon): 12.5 µM | TGI (DMS 114 small cell lung): 24 µM | TGI (DMS 273 small cell lung): 14.9 µM | TGI (EKVX NSCLC): 40.5 µM | TGI (HCC-2998 colon): 23.6 µM | TGI (HCT-116 colon): 3.25 µM | TGI (HCT-15 colon): > 50 µM | TGI (HL-60(TB) leukemia): 41.5 µM | TGI (HOP-18 NSCLC): 32.2 µM | TGI (HOP-62 NSCLC): 40.2 µM | TGI (HOP-92 NSCLC): 31.9 µM | TGI (HT29 colon): 11 µM | TGI (IGROV1 ovarian): 33.5 µM | TGI (K-562 leukemia): > 28.9 µM | TGI (KM12 colon): 5.28 µM | TGI (KM20L2 colon): 26.6 µM | TGI (LOX IMVI melanoma): 14.6 µM | TGI (LXFL 529 NSCLC): 17.6 µM | TGI (M14 melanoma): 26.7 µM | TGI (M19-MEL melanoma): 18.4 µM | TGI (MALME-3M melanoma): 35.4 µM | TGI (MOLT-4 leukemia): 34.3 µM | TGI (NCI-H226 lung): 32.2 µM | TGI (NCI-H23 lung): 36.1 µM | TGI (NCI-H460 lung): 41.8 µM | TGI (NCI-H522 lung): 33.6 µM | TGI (OVCAR-3 ovarian): 26.2 µM | TGI (OVCAR-4 ovarian): 32.5 µM | TGI (OVCAR-5 ovarian): 29.3 µM | TGI (OVCAR-8 ovarian): 51.7 µM | TGI (RPMI-8226 leukemia): 15.7 µM | TGI (RXF 393 renal): 26.8 µM | TGI (RXF-631 renal): 33.9 µM | TGI (SF-268 CNS): 43.2 µM | TGI (SF-295 CNS): 29.3 µM | TGI (SF-539 CNS): 33.3 µM | TGI (SK-MEL-2 melanoma): 42.1 µM | TGI (SK-MEL-28 melanoma): 32.7 µM | TGI (SK-MEL-5 melanoma): 33.4 µM | TGI (SK-OV-3 ovarian): 35.3 µM | TGI (SN12C renal): 28.4 µM | TGI (SNB-19 CNS): 30.8 µM | TGI (SNB-75 CNS): 20.8 µM | TGI (SNB-78 CNS): 57.6 µM | TGI (SR leukemia): 61.3 µM | TGI (SW-620 colon): 14.1 µM | TGI (TK-10 renal): 29.6 µM | TGI (U251 CNS): 19.1 µM | TGI (UACC-257 melanoma): 28.2 µM | TGI (UACC-62 melanoma): 36.9 µM | TGI (UO-31 renal): 32.6 µM | TGI (XF 498 CNS): 32.9 µM
